PubChem BioAssay AID1963869 (Molecular Pharmacology Branch, DTP, NCI, 2024)

Test system: KRAS patient-derived spheroids with HUVEC/MSC, viability
Assay: Anticancer human tumor 323965-272-R-J2-PDC patient-derived pancreatic carcinoma cell line growth inhibition [KRAS2]
Conditions: for IC50: curve of first compound; for viability, T/C: stronger effect = lower value
In short: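 KRAS-mutant tumor cells were grown as spheroids with HUVEC endothelial cells and human MSCs as stroma. Targeted agents were tested alone and with KRAS pathway inhibitors. Doses started at or near clinical Cmax, or 10 microM, descending half-log.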

[1] = second compound 0.1 µM, first compound 0.0316 µM
[2] = second compound 0.1 µM, first compound 0.1 µM
[3] = second compound 0.1 µM, first compound 0.316 µM
[4] = second compound 0.1 µM, first compound 1 µM
[5] = second compound 0.1 µM, first compound 3.16 µM
[6] = second compound 0.1 µM, first compound 10 µM
[7] = second compound 0.316 µM, first compound 0.0316 µM
[8] = second compound 0.316 µM, first compound 0.1 µM
[9] = second compound 0.316 µM, first compound 0.316 µM
[10] = second compound 0.316 µM, first compound 1 µM
[11] = second compound 0.316 µM, first compound 3.16 µM
[12] = second compound 0.316 µM, first compound 10 µM
[13] = second compound 1 µM, first compound 0.0316 µM
[14] = second compound 1 µM, first compound 0.1 µM
[15] = second compound 1 µM, first compound 0.316 µM
[16] = second compound 1 µM, first compound 1 µM
[17] = second compound 1 µM, first compound 3.16 µM
[18] = second compound 1 µM, first compound 10 µM
[19] = second compound 3.16 µM, first compound 0.0316 µM
[20] = second compound 3.16 µM, first compound 0.1 µM
[21] = second compound 3.16 µM, first compound 0.316 µM
[22] = second compound 3.16 µM, first compound 1 µM
[23] = second compound 3.16 µM, first compound 3.16 µM
[24] = second compound 3.16 µM, first compound 10 µM
[25] = second compound 10 µM, first compound 0.0316 µM
[26] = second compound 10 µM, first compound 0.1 µM
[27] = second compound 10 µM, first compound 0.316 µM
[28] = second compound 10 µM, first compound 1 µM
[29] = second compound 10 µM, first compound 3.16 µM
[30] = second compound 10 µM, first compound 10 µM
[31] = second compound 0.1 µM, first compound 0.01 µM
[32] = second compound 0.316 µM, first compound 0.01 µM
[33] = second compound 1 µM, first compound 0.01 µM
[34] = second compound 3.16 µM, first compound 0.01 µM
[35] = second compound 10 µM, first compound 0.01 µM
[36] = second compound 0.1 µM, first compound 0.00316 µM
[37] = second compound 0.316 µM, first compound 0.00316 µM
[38] = second compound 1 µM, first compound 0.00316 µM
[39] = second compound 3.16 µM, first compound 0.00316 µM
[40] = second compound 10 µM, first compound 0.00316 µM
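Note: spheroids exposed to agents for 7 days.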
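Throughout, for viability, T/C: 100% = DMSO vehicle control viability.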

Row | Compound | IC50 (second compound 0.1 µM) [nM] | IC50 (second compound 0.316 µM) [nM] | IC50 (second compound 1 µM) [nM] | IC50 (second compound 3.16 µM) [nM] | IC50 (second compound 10 µM) [nM] | viability, T/C [1] [%] | viability, T/C [2] [%] | viability, T/C [3] [%] | viability, T/C [4] [%] | viability, T/C [7] [%] | viability, T/C [8] [%] | viability, T/C [9] [%] | viability, T/C [10] [%] | viability, T/C [13] [%] | viability, T/C [14] [%] | viability, T/C [15] [%] | viability, T/C [19] [%] | viability, T/C [20] [%] | viability, T/C [25] [%] | viability, T/C [26] [%] | further results
1 | CC(C)NCC(C(=O)N1CCN(c2ncnc3c2C(C)CC3O)CC1)c1ccc(Cl)cc1 (stereo not given) + CC1OCC2(CCN(c3cnc(Sc4ccnc(N)c4Cl)c(N)n3)CC2)C1N | 732 | 143 | < 31.6 | < 31.6 | < 31.6 | 84.6 | 72.5 | 57.6 | 44.9 | 60.2 | 54.2 | 40.8 | 29 | 38.5 | 35.3 | 21.5 | 24.8 | 20.3 | 20.8 | 19.1 | viability, T/C [5]: 42.1%; viability, T/C [6]: 32.4%; viability, T/C [11]: 27.9%; viability, T/C [12]: 23.6%; viability, T/C [16]: 12.7%; viability, T/C [17]: 12.6%; viability, T/C [18]: 10.4%; viability, T/C [21]: 12.6%; viability, T/C [22]: 7.8%; viability, T/C [23]: 5.77%; viability, T/C [24]: 3.98%; viability, T/C [27]: 11.5%; viability, T/C [28]: 6.63%; viability, T/C [29]: 4.73%; viability, T/C [30]: 2.87%
2 | CC1(C)CCC(CN2CCN(c3ccc(C(=O)NS(=O)(=O)c4ccc(NCC5CCOCC5)c([N+](=O)[O-])c4)c(Oc4cnc5[nH]ccc5c4)c3)CC2)=C(c2ccc(Cl)cc2)C1 + CC1OCC2(CCN(c3cnc(Sc4ccnc(N)c4Cl)c(N)n3)CC2)C1N | 1380 | 1070 | < 31.6 | < 31.6 | < 31.6 | 81.6 | 74.7 | 78 | 65.3 | 56.9 | 63.4 | 49.9 | 53 | 43.9 | 45.9 | 40.5 | 37.3 | 32.7 | 24.6 | 24.5 | viability, T/C [5]: 10.1%; viability, T/C [6]: 3.29%; viability, T/C [11]: 6.85%; viability, T/C [12]: 2.39%; viability, T/C [16]: 34%; viability, T/C [17]: 5.15%; viability, T/C [18]: 1.19%; viability, T/C [21]: 26.6%; viability, T/C [22]: 20.2%; viability, T/C [23]: 4.11%; viability, T/C [24]: 1.21%; viability, T/C [27]: 25.4%; viability, T/C [28]: 20.9%; viability, T/C [29]: 2.63%; viability, T/C [30]: 0.27%
3 | CC1COCCN1c1cc(-c2ccnn2C)c2ccnc(-c3ccn[nH]3)c2n1 (stereo not given) + CC1OCC2(CCN(c3cnc(Sc4ccnc(N)c4Cl)c(N)n3)CC2)C1N | 15.3 | < 10 | < 10 | < 10 | < 10 | 32.2 | 17.7 | 15 | 13.5 | 23.2 | 12.3 | 10.7 | 10.5 | 13 | 7.36 | 6.29 | 7.07 | 4.72 | 5.12 | 4.05 | viability, T/C [31]: 60.7%; viability, T/C [5]: 12.9%; viability, T/C [32]: 43.1%; viability, T/C [11]: 9.88%; viability, T/C [33]: 35.1%; viability, T/C [16]: 5.53%; viability, T/C [17]: 3.23%; viability, T/C [34]: 13.3%; viability, T/C [21]: 4.25%; viability, T/C [22]: 2.21%; viability, T/C [23]: 2.21%; viability, T/C [35]: 7.99%; viability, T/C [27]: 3.27%; viability, T/C [28]: 1.9%; viability, T/C [29]: 1.31%
4 | CCN1CCN(Cc2ccc(Nc3ncc(F)c(-c4cc(F)c5nc(C)n(C(C)C)c5c4)n3)nc2)CC1 + CC1OCC2(CCN(c3cnc(Sc4ccnc(N)c4Cl)c(N)n3)CC2)C1N | 25.2 | 14.6 | < 3.16 | < 3.16 | < 3.16 | 45.8 | 46.4 | 42 | 49.7 | 42.1 | 36.8 | 35.5 | 42.3 | 26.2 | 23.4 | 26.1 | 14.9 | 14.7 | 13.9 | 10.5 | viability, T/C [36]: 72.6%; viability, T/C [31]: 66.4%; viability, T/C [37]: 51.3%; viability, T/C [32]: 56.5%; viability, T/C [38]: 38.5%; viability, T/C [33]: 37.7%; viability, T/C [16]: 35.3%; viability, T/C [39]: 18.8%; viability, T/C [34]: 15.7%; viability, T/C [21]: 17.9%; viability, T/C [22]: 29.5%; viability, T/C [40]: 13.7%; viability, T/C [35]: 16.3%; viability, T/C [27]: 14.5%; viability, T/C [28]: 25.7%
5 | CCNC(=O)CC1N=C(c2ccc(Cl)cc2)c2cc(OC)ccc2-n2c(C)nnc21 (stereo not given) + CC1OCC2(CCN(c3cnc(Sc4ccnc(N)c4Cl)c(N)n3)CC2)C1N | 244 | 146 | < 31.6 | < 31.6 | < 31.6 | 74.6 | 63.5 | 44.9 | 36.3 | 63.3 | 57.8 | 34.4 | 28 | 45.6 | 35.5 | 27.2 | 16.2 | 20.8 | 16.6 | 16.3 | viability, T/C [5]: 28.6%; viability, T/C [6]: 27.4%; viability, T/C [11]: 25.2%; viability, T/C [12]: 22.6%; viability, T/C [16]: 22.2%; viability, T/C [17]: 11.9%; viability, T/C [18]: 7.8%; viability, T/C [21]: 14.3%; viability, T/C [22]: 13.1%; viability, T/C [23]: 6.89%; viability, T/C [24]: 4.84%; viability, T/C [27]: 14.9%; viability, T/C [28]: 8.18%; viability, T/C [29]: 6.22%; viability, T/C [30]: 3.88%
6 | Cn1ncnc1[C@H]1c2n[nH]c(=O)c3cc(F)cc(c23)N[C@@H]1c1ccc(F)cc1 + CC1OCC2(CCN(c3cnc(Sc4ccnc(N)c4Cl)c(N)n3)CC2)C1N | > 100 | 35.9 | < 0.316 | < 0.316 | < 0.316 | 76.2 | 62 |  |  | 51.2 | 45 |  |  | 42 | 38 |  | 24.4 | 21 | 18.7 | 17.2 | viability, T/C (second compound 0.1 µM, first compound 0.000316 µM): 80.9%; viability, T/C (second compound 0.1 µM, first compound 0.001 µM): 82.9%; viability, T/C [36]: 82.9%; viability, T/C [31]: 79.7%; viability, T/C (second compound 0.316 µM, first compound 0.000316 µM): 57.5%; viability, T/C (second compound 0.316 µM, first compound 0.001 µM): 62.5%; viability, T/C [37]: 55.2%; viability, T/C [32]: 53.6%; viability, T/C (second compound 1 µM, first compound 0.000316 µM): 44%; viability, T/C (second compound 1 µM, first compound 0.001 µM): 47.5%; viability, T/C [38]: 45.7%; viability, T/C [33]: 43.7%; viability, T/C (second compound 3.16 µM, first compound 0.000316 µM): 34.4%; viability, T/C (second compound 3.16 µM, first compound 0.001 µM): 32%; viability, T/C [39]: 30.1%; viability, T/C [34]: 28.2%; viability, T/C (second compound 10 µM, first compound 0.000316 µM): 29.3%; viability, T/C (second compound 10 µM, first compound 0.001 µM): 23.2%; viability, T/C [40]: 20.8%; viability, T/C [35]: 20.1%
